Measurements as given in patent US11673876B2, “Substituted aminobenzyl heteroaryl compounds as EGFR and/or PI3K inhibitors” (Mekanistic Therapeutics LLC, priority 2020, dated 2023).

Key:
[1] = Pharmacokinetics in mice, single IV or oral administration; format: in vivo, mouse; details: for C0 / half-life / Cmax / Tmax: blood; for C0 / half-life / Cmax / Tmax / Cl_obs / F: mouse
Description: (§1) The pharmacokinetics of Compound 2R (HCl salt) and Comparative Compound 2 were studied following a single intravenous and/or oral administration to mice, dogs, and monkeys (n=3 for all species). The IV and PO solution formulations for Comparative Compound 2 contained 20% (w/v) propylene glycol, 75% (w/v) 50 mM trisodium phosphate (pH 12), and 5% (w/v) Kolliphor EL. The formulation for Compound 2R contained 1:2 propylene glycol: 1% Tween 80/Na3PO4 (50 mM). Subsequent pharmacokinetic data analysis was performed using non-compartmental analysis modules in Phoenix/WINNONLIN 6.3 (Pharsight, St. Louis, Mo., USA), and the linear trapezoidal rule was used for AUC calculation. Terminal elimination half-life (t½) was calculated based on data points (≥3) in the terminal phase; Tmax=Time of maximum observed concentration; AUClast/D=Area under the concentration-time curve from time zero to the last observed concentration/divided by dose; Cl_obs=Total body clearance; Cmax=maximum observed concentration; F=bioavailability of oral dose form. Blood samples were assayed for compounds using protein precipitation with acetonitrile followed by HPLC/MS/MS analysis. Blood concentration-time data were analyzed by non-compartmental methods.

[2] = Pharmacokinetics in dogs, single IV or oral administration; format: in vivo, dog; details: for C0 / half-life / Cmax / Tmax: blood; for C0 / half-life / Cmax / Tmax / Cl_obs / F: dog
Description: as §1

[3] = Pharmacokinetics in monkeys, single IV or oral administration; format: in vivo, monkey; details: for C0 / half-life / Cmax / Tmax: blood; for C0 / half-life / Cmax / Tmax / Cl_obs / F: monkey
Description: as §1

[4] = system: PIK3CA mutant human CAL-33 (squamous head and neck cancer); experiment: CAL-33 xenograft study in NCR nude mice; format: in vivo; details: for Median Increase In Survival: time to 1000 mg vs vehicle
Description: (§2) Xenograft Studies. Female NCR nude mice (CrTac:NCr-Foxn1nu from Taconic), 6-7 weeks old, were implanted subcutaneously with 5×10^6 cells in a 1:1 serum-free media/Matrigel® mixture into the region of the right axilla. Mice were randomized into treatment groups and treatments initiated when tumors reached 100 to 200 mg. Compound 2R was administered daily by oral gavage as a fine suspension in 1:2 propylene (glycol in 1% Tween80/Na3PO4 based upon individual animal body weight (0.2 mL/20 g). Subcutaneous tumor volume and body weights were measured two to three times a week. Tumor volumes were calculated by measuring two perpendicular diameters with calipers and using the formula: tumor volume=(length×width2)/2. Individual mice were dosed daily until their tumor burden reached 500 mg for the CAL-27 and HCC-70 models or 1000 mg for the CAL-33 model, to allow for calculation of increase in progression-free survival. Percent increase in survival was calculated by comparing the median time to reach either 500 mg or 1000 mg in the treated group versus the vehicle control group. A complete response (CR) is defined as a tumor below the limits of palpation (<40 mg).
(§3) FIGS. 1-3 show the performance of Compound 2R in controlling tumor size. […] Tumor growth curves as well as survival and objective response data are summarized in the accompanying FIGS. 1-3 and the table below.

[5] = system: PI3K gamma mutant human CAL-27 (squamous head and neck cancer); experiment: CAL-27 xenograft study in NCR nude mice; format: in vivo; details: CAL-27 model
Description: as §2, §3

[6] = system: human CAL-27 (squamous head and neck cancer); experiment: CAL-27 xenograft study in NCR nude mice; format: in vivo; details: time to 500 mg vs vehicle
Description: as §2, §3

[7] = system: human HCC-70 (triple negative breast cancer); experiment: HCC-70 xenograft study in NCR nude mice; format: in vivo
Description: as §2, §3

[8] = Tolerability in the xenograft studies; format: in vivo; details: highest dose tested 100 mg/kg, daily dosing over >50 days
Description: as §2, §3

**Q.** Which C0 ([1]; 10 mg/kg, IV, 10 mpk) does the source give for `CS(=O)(=O)Nc1cc(-c2ccc3ncnc(Nc4ccc(F)c(Cl)c4)c3c2)cnc1Cl` [Comparative Compound 2, reference compound] here?
**A.** 25600 ng/mL

**Q.** And the half-life ([1]; 10 mg/kg, IV, 10 mpk)?
**A.** 1.2 h

**Q.** And the Cmax ([1]; 10 mg/kg, oral, 10 mpk)?
**A.** 8270 ng/mL

**Q.** What about the Tmax ([1]; 10 mg/kg, oral, 10 mpk) of the same molecule?
**A.** 1 h

**Q.** And the half-life ([1]; 10 mg/kg, oral, 10 mpk)?
**A.** 1.4 h

**Q.** What about the Cl_obs ([1]; IV, 10 mpk) of the same molecule?
**A.** 3.3 mL/min/kg

**Q.** What about the F ([1]; oral, 10 mpk) of the same molecule?
**A.** 63%

**Q.** What about the C0 ([2]; 1 mg/kg, IV, 1 mpk) of the same molecule?
**A.** 5490 ng/mL

**Q.** What about the half-life ([2]; 1 mg/kg, IV, 1 mpk) of the same molecule?
**A.** 0.7 h

**Q.** What about the Cmax ([2]; 5 mg/kg, oral, 5 mpk) of the same molecule?
**A.** 716 ng/mL

**Q.** What about the Tmax ([2]; 5 mg/kg, oral, 5 mpk) of the same molecule?
**A.** 2 h

**Q.** And the half-life ([2]; 5 mg/kg, oral, 5 mpk)?
**A.** 0.8 h

**Q.** And the Cl_obs ([2]; IV, 1 mpk)?
**A.** 10.50 mL/min/kg

**Q.** What about the F ([2]; oral, 5 mpk) of the same molecule?
**A.** 25%

**Q.** What about the C0 ([3]; 1 mg/kg, IV, 1 mpk) of the same molecule?
**A.** 5910 ng/mL

**Q.** And the half-life ([3]; 1 mg/kg, IV, 1 mpk)?
**A.** 1.1 h

**Q.** What about the Cmax ([3]; 10 mg/kg, oral, 10 mpk) of the same molecule?
**A.** 110 ng/mL

**Q.** And the Tmax ([3]; 10 mg/kg, oral, 10 mpk)?
**A.** 1 h

**Q.** And the half-life ([3]; 10 mg/kg, oral, 10 mpk)?
**A.** 2 h

**Q.** What about the Cl_obs ([3]; IV, 1 mpk) of the same molecule?
**A.** 15.71 mL/min/kg

**Q.** And the F ([3]; oral, 10 mpk)?
**A.** 3%

**Q.** Which “Median Increase In Survival” value ([4]; CAL-33, 25 mg/kg daily oral gavage) does the source give for `C[C@@H](Nc1ncnc2ccc(-c3cnc(Cl)c(NS(C)(=O)=O)c3)cc12)c1ccccc1` [Compound 2R, N-(2-chloro-5-(4-((1R-phenylethyl)amino)quinazolin-6-yl)pyridin-3-yl)methanesulfonamide] here?
**A.** >700%

**Q.** And the “Median Increase In Survival” value ([4]; CAL-33, 50 mg/kg daily oral gavage)?
**A.** >700%

**Q.** What about the “Median Increase In Survival” value ([4]; CAL-33, 100 mg/kg daily oral gavage) of the same molecule?
**A.** >700%

**Q.** And the “single agent activity (tumor growth)” value ([4]; CAL-33 model)?
**A.** Single agent activity of Compound 2R was demonstrated

**Q.** What about the “single agent activity (tumor growth)” value [5] of the same molecule?
**A.** Single agent activity of Compound 2R was demonstrated

**Q.** And the “Median Increase In Survival” value ([6]; CAL-27, 10 mg/kg daily oral gavage)?
**A.** 328%

**Q.** And the “Median Increase In Survival” value ([6]; CAL-27, 100 mg/kg daily oral gavage)?
**A.** >700%

**Q.** And the “Median Increase In Survival” value ([7]; HCC-70, 100 mg/kg daily oral gavage, time to 500 mg vs vehicle)?
**A.** 363%

**Q.** And the “single agent activity (tumor growth)” value ([7]; HCC-70 model)?
**A.** Single agent activity of Compound 2R was demonstrated

**Q.** And the C0 ([1]; 5 mg/kg, IV, 5 mpk)?
**A.** 25700 ng/mL

**Q.** What about the half-life ([1]; 5 mg/kg, IV, 5 mpk) of the same molecule?
**A.** 2.5 h

**Q.** What about the Cmax ([1]; 25 mg/kg, oral, 25 mpk) of the same molecule?
**A.** 21700 ng/mL

**Q.** And the Tmax ([1]; 25 mg/kg, oral, 25 mpk)?
**A.** 4.17 h

**Q.** And the half-life ([1]; 25 mg/kg, oral, 25 mpk)?
**A.** 4.9 h

**Q.** And the “increase in exposure (AUClast/D) compared to Comparative Compound 2” value (from here on “increase in exposure (AUClast/D)”) ([1]; mice, IV)?
**A.** ~3 fold

**Q.** What about the “enhanced exposure relative to Comparative Compound 2” value ([1]; mice, oral) of the same molecule?
**A.** 3 fold

**Q.** And the Cl_obs ([1]; IV, 5 mpk)?
**A.** 1.2 mL/min/kg

**Q.** And the F ([1]; oral, 25 mpk)?
**A.** 83%

**Q.** What about the C0 ([2]; 1 mg/kg, IV, 1 mpk) of the same molecule?
**A.** 7150 ng/mL

**Q.** And the half-life ([2]; 1 mg/kg, IV, 1 mpk)?
**A.** 10.4 h

**Q.** And the Cmax ([2]; 5 mg/kg, oral, 5 mpk)?
**A.** 7090 ng/mL

**Q.** What about the Tmax ([2]; 5 mg/kg, oral, 5 mpk) of the same molecule?
**A.** 2 h

**Q.** And the half-life ([2]; 5 mg/kg, oral, 5 mpk)?
**A.** 12 h

**Q.** What about the Cl_obs ([2]; IV, 1 mpk) of the same molecule?
**A.** 0.52 mL/min/kg

**Q.** What about the F ([2]; oral, 5 mpk) of the same molecule?
**A.** 48%

**Q.** And the “increase in exposure (AUClast/D)” value ([2]; dogs, dosed intravenously)?
**A.** ~15 fold

**Q.** What about the “improvement in exposure (AUClast/D) relative to Comparative Compound 2” value ([2]; dogs, oral) of the same molecule?
**A.** > 28 fold

**Q.** What about the C0 ([3]; 1 mg/kg, IV, 1 mpk) of the same molecule?
**A.** 4170 ng/mL

**Q.** What about the half-life ([3]; 1 mg/kg, IV, 1 mpk) of the same molecule?
**A.** 2.3 h

**Q.** What about the Cmax ([3]; 10 mg/kg, oral, 10 mpk) of the same molecule?
**A.** 4710 ng/mL

**Q.** And the Tmax ([3]; 10 mg/kg, oral, 10 mpk)?
**A.** 2 h

**Q.** What about the half-life ([3]; 10 mg/kg, oral, 10 mpk) of the same molecule?
**A.** 4 h

**Q.** What about the Cl_obs ([3]; IV, 1 mpk) of the same molecule?
**A.** 4.81 mL/min/kg

**Q.** What about the F ([3]; oral, 10 mpk) of the same molecule?
**A.** 59%

**Q.** What about the “increase in exposure (AUClast/D)” value ([3]; monkeys, IV) of the same molecule?
**A.** ~3 fold

**Q.** And the “improvement in exposure (AUClast/D) relative to Comparative Compound 2” value ([3]; monkeys, oral)?
**A.** > 74 fold

**Q.** What about the “tolerability (body weight loss, clinical signs)” value [8] of the same molecule?
**A.** well tolerated at the highest dose tested (100 mg/kg) with no signs of body weight loss or other clinical signs
